Reference: US20110212186A1, “COMPOSITION FOR TREATING AUTOIMMUNE DISORDERS” (priority 2008, published 2011)

Columns and labels:
[1] = test system: Bovine articular cartilage explants; assay: Collagen type II formation (PIINP ELISA) in bovine cartilage explants; type: cell-based; details: for effect on PIINP, day 22: Oligomin and T-ChOS 50-400 μg/ml, A and D 200 and 400 μg/ml
Experimental: (§1) For cartilage explant experiments, aminosugar concentrations tested were as follows. Oligomin and T-ChOS, 50, 100, 200 and 400 μg/ml in the media. N-acetyl glucosamine (A) and glucosamine (D), 200 and 400 μg/ml in the media. A+D combination were 200 μg/ml each in the media.
(§2) Bovine articular cartilage explants cultures are used as a model for cartilage degenerative diseases that enables experiments in a robust and simple test-model/assay, where the effect of growth factors and drugs on cartilage metabolism can be investigated [ Olsen, A.K., et al., Anabolic and catabolic function of chondrocyte ex vivo is reflected by the metabolic processing of type II collagen. Osteoarthritis and Cartilage, 2007, 15(3): p. 335-342.].
(§3) The knees were opened under semi-sterile conditions in a LAF bench. Cuts of surface articular cartilage were removed in a one-movement-maneuver, removing only the outermost layer. Too deep cuts will contain underlying subchondral bone /chondrosteous material. Uniform explants were harvested from both femur and tibia. Explants from the cartilage situated at the chondyles were avoided. The explants were transferred into a Petri-dish containing PBS+pen/strep (penincillin/streptomycin).
The explants were individually weighed and transferred into a sterile 96 well plate under semi-sterile conditions in a flow-bench. Prior, the wells were filled with 200 μL PBS+pen/strep, to keep the explants wet after weighing. Then PBS was removed, and medium containing different types and concentration of aminosugars were applied to the wells, 200 μL/well, according to the set-up. Four explant replicates were used for each test. The plates were incubated at 37° C. and 5% CO2 with shaking 50 rpm. The plates were covered in a CO2 permeable plastic bag to limit/avoid contamination from spores. […]
Supernatants were measured for type II collagen formation (PIINP), for aggrecanase-mediated aggrecan degradation. […]
Collagen type II formation is measured by a specific ELISA assay based on an antibody that recognizes an epitope on the PIINP molecule outside the exon 2 (PIIANP). […]

[2] = test system: Bovine articular cartilage explants; assay: Chondroitin sulphate (sGAG) release from bovine cartilage explants, anabolic conditions; type: cell-based; details: for effect on accumulated chondroitin sulphate release day 10-23: Oligomin 200 and 400 μg/ml, glucosamine 400 μg/ml, T-ChOS 50-400 μg/ml, A 200 and 400 μg/ml; for accumulative chondroitin sulphate release day 17-24: combination experiment, IGF-1 100 ng/ml
Experimental: as §1, §2, §3
The explants were individually weighed and transferred into a sterile 96 well plate under semi-sterile conditions in a flow-bench. Prior, the wells were filled with 200 μL PBS+pen/strep, to keep the explants wet after weighing. Then PBS was removed, and medium containing different types and concentration of aminosugars were applied to the wells, 200 μL/well, according to the set-up. Four explant replicates were used for each test. The plates were incubated at 37° C. and 5% CO2 with shaking 50 rpm. The plates were covered in a CO2 permeable plastic bag to limit/avoid contamination from spores. The conditioning medium was replaced every 2nd - 3rd day, and the supernatant was transferred into a new 96 wells plate and stored at −20° C. until end of experiment. Fresh medium different types and concentration of aminosugars were applied to the wells, 200 μL/well, according to the setup every 2nd- 3rd day.
For detection of sulfated glycosaminoglycans (sGAG) that is chondroitin sulphate release, the quantitative dye-binding assay for in vitro analysis of GAG release was used according to the manufacturer's instructions (Wieslab, S).

[3] = test system: human OA cartilage explant; assay: Collagen type II formation (PIINP) in human OA cartilage explants; type: cell-based; details: different concentrations
Experimental: Collagen type II formation is measured by a specific ELISA assay based on an antibody that recognizes an epitope on the PIINP molecule outside the exon 2 (PIIANP). Therefore the EUSA is not specific for the HA or the IIB form but reacts with both forms. Cartilage explants were obtained from a knee of a person suffering from osteoarthritis. Explants were kept in growth media under anabolic conditions for 25 days. Fresh media was applied every 2-3 days. Aminosugars (Oligomin, T-ChOS, A and D; different concentration) were kept in media from day 0 to day 25.

[4] = test system: human OA articular cartilage explants; assay: Cell viability by Alamar Blue, human OA articular cartilage explants; type: cell-based; details: linear regression p<0.05
Experimental: To ensure the specific and non-toxic action of aminosugars, the metabolic activity of chondrocytes were measured by Alamar Blue, which previously has shown to correlate to cell number and cell viability. Cartilage explants were obtained from a knee of a person suffering from osteoarthritis. Explants were kept in growth media under anabolic conditions for 25 days. Fresh media was applied every 2-3 days. Aminosugars (Oligomin, T-ChOS, A and D; different concentration) were kept in media from day 0 to day 25.

[5] = test system: type II collagen arthritis in rats; assay: Type II collagen induced rheumatoid arthritis rat model, oral dosing; type: in vivo
Experimental: Animals used were 10 per group for arthritis-Induced groups, 4/group for non-induced control group), housed 4-5/cage. For the arthritis induction, the animals were anesthetized with Isoflurane and given subcutaneous/intradermal (SC/ID) injections of 300 μl of Freund's Incomplete Adjuvant (Difco, Detroit, Mich.), containing 2 mg/ml bovine type II collagen (Elastin Products, Owensville, Mo.), at the base of the tail and 2 sites on the back on days 0 and 6. Dosing of the various oligomer and/or monomer compositions by oral route (QD at 24 hr intervals) was initiated on day 0 of the study and continued through day 16. Animals were terminated on study day 17. Efficacy evaluation was based on ankle caliper measurements, expressed as area under the curve (AUC), terminal hind paw weights, and histopathologic evaluation of ankles and knees. For statistical analysis various inflammation calculations were performed for the ankle diameter data, Anova and t-tests (parametrical or non-parametrical tests) were applied according to software guidelines ([…]). All animals survived to study termination.

YKL-40 = assay: Extracellular YKL-40 release in human cartilage explant media; type: cell-based; details: 400 μg/ml
Experimental: Cartilage explants were obtained from a knee of a person suffering from osteoarthritis. Explants were kept in growth media under anabolic conditions for 25 days. Fresh media was applied every 2-3 days. Aminosugars (Oligomin, T-ChOS, A and D; different concentration) were kept in media from day 0 to day 25. Since YKL-40 is a proposed receptor for the T-ChOS, the extracellular YKL-40 release was analyzed in media at day 4, 11, 15, 20 and 25 in explants treated with 400 μg/ml of T-ChOS, Oligomin and glucosamine (D). […] For the control there was a significant drop in the YKL-40 expression between day 10 and 20. […] Glucosamine had no effect (FIG. 7). […] This relationship disappeared when the T-ChOS group was excluded from the data (no linear regression).

[6] = test system: Bovine articular cartilage explants; assay: Extracted cartilage protein content, bovine explants; type: cell-based; details: combination experiment
Experimental: The cartilage was extracted to determine the cartilage content of various proteins, in comparison of that secreted to the medium.
Cartilage explants were frozen in liquid nitrogen. The frozen explants were pulverized using Bessman Tissue Pulverizer according to the instructions supplied by the manufacturer. The powder was placed in 14 ml tube using frozen scalpel. Ice-cold Digestive Buffer (50 mM Tris.HCL buffer, pH 7.4 containing 0.1M NaCL and 0.1% Triton X-100) was added and the solution homogenized for 30 sec using Polytron PT-MR 3000 homogenizer (Brinkmann, Littau-Switzerland).The homogenate was then centrifuged at 15,000 rpm for 20 min and the supernatant collected and stored at −80° C. until further analysis.

| Molecule | effect on PIINP, day 22 [1] | effect on accumulated chondroitin sulphate release day 10-23 [2] | effect on PIINP expression day 18-25 [3] | accumulated PIINP release (day 20 and day 24) ([1]; combination experiment, T-ChOS 50 and 400 μg/ml, T-ChOS 400 μg/ml + glucosamine 200 μg/ml, glucosamine 200 μg/ml, Oligomin 50-400 μg/ml) | effect on accumulated chondroitin sulphate release day 10-23 ([2]; listed as Glucosamine) | accumulative chondroitin sulphate release day 17-24 [2] | Cell-viability at day 25 (Alamar Blue), induction [4] | Summed knee scores, non-significant increase vs disease controls ([5]; 21 mg/kg D alone) | Inhibition of summed ankle histopathology parameters ([5]; T-ChOS 7.1 mg/kg (Group 3), D 21.4 mg/kg (Group 4), T-ChOS 7.1 + D 21.4 mg/kg (Group 5)) | overall benefit in the rat arthritis study (summary) ([5]; T-ChOS 7.1 mg/kg alone, D-glucosamine 21.4 mg/kg alone) | accumulative ankle diameter (day 9-17) ([5]; T-ChOS 7.1 mg/kg, D 21.4 mg/kg, combination T-ChOS 7.1 + D 21.4 mg/kg) | YKL-40 expression in media, late period (day 15-25) (YKL-40) | extracted cartilage protein assay at day 24 [6] |
| --- | --- | --- | --- | --- | --- | --- | --- | --- | --- | --- | --- | --- | --- |
| CC(=O)N[C@H]1C(O)O[C@H](CO)[C@@H](O)[C@@H]1O (stereo partly shown) [N-acetyl glucosamine] | no effect | no significant effect |  |  |  |  |  |  |  |  |  |  |  |
| N[C@H]1C(O)O[C@H](CO)[C@@H](O)[C@@H]1O (stereo partly shown) [glucosamine] | no effect | significant reduction | no effect | no effect | same effect | neither T-ChOS nor glucosamine alone did have any significant effect | least | 14% | 12% | no beneficial effect | no effect | no effect |  |
| IGF-1: Insulin-like Growth Factor-1, 100 ng/ml, positive anabolic stimulation control |  |  |  |  |  | significant Increase |  |  |  |  |  |  | did not reveal any significant effect |
